Patent publication US11780833B2, “Emetine derivatives, prodrugs containing same, and methods of treating conditions using same” (HOWARD UNIVERSITY, priority 2011, dated 2023)
Like-named read-outs stand apart in the source and are kept apart here.

Experiments:
[1] = test system: PC3 cells; assay: Cytotoxicity in 100% confluent PC3 cells (Example 9); format: cell-based; conditions: Homo sapiens, PC-3, 120 h; PC3, 100% confluent cells, medium pH 6.7, day 5
Description: (§1) The cytotoxicity of emetine and Compound 2 (as produced above in Example 1 and referred to in the figures as “ESA44”) was evaluated in DU145 and PC3 cells using 100% confluent cells. Cells were plated at 40,000 cells per well and allowed to grow for 4 days until the pH of the medium was 6.7. Compound 2 was added in RPMI, pH 7.0. The effect of the pH on the hydrolysis of Compound 2 to release emetine was evaluated. FIGS. 1 and 2 are graphs showing the viability of DU145 and PC3 cells as percent of vehicle on day 5 versus concentration of emetine and Compound 2.

[2] = test system: PC3 cells; assay: cells; format: cell-based; conditions: Homo sapiens
Description: (§2) Studies were carried out on three prostate cancer cell lines: LNCaP, PC3, and DU145. […] There was not a significant difference in cytotoxicity of emetine between days 3 and 7. […] This increase is most likely due to the release of emetine from the dithiocarbamate salt over the time period. Further drug release studies at pH 5 confirmed about 45% release of emetine from the dithiocarbamate salt after 3-day incubation at this acidic pH maintained at 37° C., whereas release of emetine from the dithiocarbamate salt was not observed at physiological pH (e.g., about 7.4).
(§3) Various compounds prepared according to Examples 1-5 were studied in LNCaP, PC3, and DU145 cells.
(§4) Various compounds prepared according to Example 6 were studied in DU145 and PC3 cells. The IC50 was determined at 3, 5, and 7 days.

[3] = test system: DU145 cells; assay: cells; format: cell-based; conditions: Homo sapiens
Description: as §2, §3, §4

[4] = test system: LNCaP cells; assay: Cytotoxicity in LNCaP prostate cancer cell line; format: cell-based; conditions: Homo sapiens
Description: as §2, §3

[5] = In vivo toxicity study in mice
From the text: Each experiment or dosage involved three mice, and drug solutions were made in 1% DMSO/PBS. Each experiment was done three times.
The compounds were subjected to in vivo toxicity studies as follows. […] This observation was the same on the third and fourth day.

[6] = test system: DU145 cells; assay: Cytotoxicity in 100% confluent DU145 cells (Example 9); format: cell-based; conditions: Homo sapiens, DU-145, 120 h; DU145, 100% confluent cells, medium pH 6.7, day 5
Description: as §1

[7] = pH-responsiveness by HPLC: emetine released in aqueous phosphate buffer; format: physicochemical; conditions: 37° C.
Description: Relative rates of hydrolysis of the compounds listed in Table 5 below over a 48 hour period were evaluated using the percent emetine released from the acid catalyzed hydrolysis of compounds 1 to 6.
The compounds were incubated in aqueous phosphate buffer at pH 5.5, 6.5 and 7.4 at 37° C. over a 48 hour period. High performance liquid chromatography (HPLC) was employed to analyze the samples and quantify how much emetine was released. The compounds whose hydrolysis to emetine is shown in table 5 are all 100% stable at physiological pH 7.4 up to a 5 day exposure.

[8] = PC-3, 168 h, read-out: IC50 after 7 days
[9] = DU-145, 168 h, read-out: IC50 after 7 days
[10] = 168 h, read-out: IC50 after 7 days

## CC[C@H]1CN2CCc3cc(OC)c(OC)cc3[C@@H]2C[C@@H]1C[C@H]1NCCc2cc(OC)c(OC)cc21 [Emetine]
[1]
  IC50: 3.85 ± 0.149 µM
[2]; PC-3, 72 h, PC3, 3 day exposure, read-out: IC50
  IC50: 0.0351 µM
[2]; PC-3, 168 h, PC3, 7 days, read-out: IC50 after 7 days
  IC50: 0.0268 ± 0.00228 µM
[2]; PC-3, 168 h, PC3, seven day exposure, read-out: IC50
  IC50: 0.0294 µM
[3]; DU-145, 72 h, DU145, 3 day exposure, read-out: IC50
  IC50: 0.0379 µM
[3]; DU-145, 168 h, DU145, 7 days, read-out: IC50 after 7 days
  IC50: 0.0237 ± 0.00122 µM
[3]; DU-145, 168 h, DU145, seven day exposure, read-out: IC50
  IC50: 0.0234 µM
[4]; 72 h, 3 day exposure, read-out: IC50
  IC50: 0.0329 µM
[4]; 168 h, 7 days, read-out: IC50 after 7 days
  IC50: 0.0278 ± 0.00384 µM
[4]; 168 h, seven day exposure, read-out: IC50
  IC50: 0.0316 µM
[5]; 33 and 11 MPK
  toxicity observation: slight weight loss
[5]; single dose 100 MPK, within 48 hours
  toxicity observation: killed all three mice
[6]
  IC50: 12.9 ± 2.39 µM

## CCC1CN2CCc3cc(OC)c(OC)cc3C2CC1CC1c2cc(OC)c(OC)cc2CCN1C(=S)NCc1ccccc1 (stereo not drawn) [Compound 11e]
[2]; [8]
  IC50: 6.92 ± 0.0711 µM
[3]; [9]
  IC50: 1.54 ± 0.254 µM
[4]; [10]
  IC50: 2.06 ± 0.438 µM

## CCCCCCSC(=S)N1CCc2cc(OC)c(OC)cc2C1CC1CC2c3cc(OC)c(OC)cc3CCN2CC1CC (stereo not drawn) [Compound 4h]
[2]; [8]
  IC50: 3.03 ± 0.16 µM
[3]; [9]
  IC50: 2.3 ± 0.067 µM
[4]; [10]
  IC50: 1.61 ± 0.066 µM

## CCC1CN2CCc3cc(OC)c(OC)cc3C2CC1CC1c2cc(OC)c(OC)cc2CCN1C(=O)/C=C(/C)C(=O)O (stereo not drawn) [Compound 5]
[7]; pH 5.5, 0 hr
  % Emetine at pH 5.5: 0.0%
[7]; pH 5.5, 24 hrs
  % Emetine at pH 5.5: 61.5%
[7]; pH 5.5, 48 hrs
  % Emetine at pH 5.5: 77.3%
[7]; pH 6.5, 0 hr
  % Emetine at pH 6.5: 0.0%
[7]; pH 6.5, 24 hrs
  % Emetine at pH 6.5: 24.9%
[7]; pH 7.4 to 8.0, 0 hrs
  % Emetine at pH 7.4 to 8.0 over 72 hrs: 0.0%
[7]; pH 7.4 to 8.0, 24 hrs
  % Emetine at pH 7.4 to 8.0 over 72 hrs: 0.0%
[7]; pH 7.4 to 8.0, 48 hrs
  % Emetine at pH 7.4 to 8.0 over 72 hrs: 0.0%
[5]; 11 and 33 MPK, day 5
  toxicity observation: no noticeable toxicity effect
[5]; 100 MPK or below (33 and 11 MPK), through third and fourth day
  toxicity observation: no noticeable toxicity
[5]; 100 MPK, day 5
  toxicity observation: slight weight loss

## CCC1CN2CCc3cc(OC)c(OC)cc3C2CC1CC1c2cc(OC)c(OC)cc2CCN1C(=S)NCc1ccc(Cl)cc1 (stereo not drawn) [Compound 11g]
[2]; [8]
  IC50: 2.86 ± 0.0662 µM
[3]; [9]
  IC50: 2.32 ± 0.091 µM
[4]; [10]
  IC50: 1.59 ± 0.151 µM

## CCC1CN2CCc3cc(OC)c(OC)cc3C2CC1CC1c2cc(OC)c(OC)cc2CCN1S(=O)(=O)c1ccccc1 (stereo not drawn) [Compound 8e]
[2]; [8]
  IC50: > 10 µM
[3]; [9]
  IC50: > 10 µM
[4]; [10]
  IC50: 2.26 ± 0.798 µM
